Experimental data as given in patent publication US20100222426A1, “Anti-Bacterial Agents” (priority 2007, published 2010).
Values after ≈ are worked out from the molar mass of the structure shown. Like-named read-outs stand apart in the source and are kept apart here.

Experiments:
[1] = test system: MRSA and penicillin-resistant Staphylococcus aureus; details: cited from earlier work
[2] = has to be stabilised as a salt; cited from earlier work
S. aureus EMRSA15 = assay: MIC assay (MHB microtitre, MTT); assay type: cell-based; details: Staphylococcus aureus
S. aureus EMRSA16 = assay: MIC assay (MHB microtitre, MTT); assay type: cell-based; details: Staphylococcus aureus
S. aureus SA1199B = assay: MIC assay (MHB microtitre, MTT); assay type: cell-based; details: Staphylococcus aureus
S. aureus ATCC25923 = assay: MIC assay (MHB microtitre, MTT); assay type: cell-based; details: Staphylococcus aureus
P. aeruginosa K1119 = assay: MIC assay (MHB microtitre, MTT); assay type: cell-based; details: Pseudomonas aeruginosa
P. aeruginosa K767 = assay: MIC assay (MHB microtitre, MTT); assay type: cell-based; details: Pseudomonas aeruginosa
S. aureus XU212 = assay: microbe, parasite or virus in culture; assay type: cell-based; details: Staphylococcus aureus
S. aureus RN4220 = assay: MIC assay (MHB microtitre, MTT); assay type: cell-based; details: Staphylococcus aureus
Experimental: Bacteria were cultured on nutrient agar (Oxoid) and incubated for 24 h at 37 ° C. prior to MIC determination. […] An inoculum density of 5×10^5 cfu of S. aureus was prepared in normal saline (9 g/l) by comparison with a 0.5 MacFarland turbidity standard. The inoculum (125 μl) was added to all wells and the microtitre plate was incubated at 37° C. for 18 h. For MIC determination, 20 μl of a 5 mg/ml methanolic solution of 3-[4,5-dimethylthiazol-2-yl]-2,5-diphenyltetrazolium bromide (MTT; Sigma) was added to each of the wells and incubated for 20 min. Bacterial growth was indicated by a colour change from yellow to dark blue. The MIC was recorded as the lowest concentration at which no growth was observed.

M. smegmatis ATCC14468 = assay: MIC assay (MHB microtitre, MTT); assay type: cell-based; details: Mycolicibacterium smegmatis
M. fortuitum ATCC6841 = assay: MIC assay (MHB microtitre, MTT); assay type: cell-based; details: Mycolicibacterium fortuitum
M. smegmatis MC2 2700 = assay: MIC assay (MHB microtitre, MTT); assay type: cell-based; details: Mycolicibacterium smegmatis, MC22700
M. phlei ATCC11758 = assay: MIC assay (MHB microtitre, MTT); assay type: cell-based; details: Mycolicibacterium phlei
S. typhimurium L354 = assay: MIC assay (MHB microtitre, MTT); assay type: cell-based; details: Salmonella enterica
S. typhimurium L10 = assay: MIC assay (MHB microtitre, MTT); assay type: cell-based; details: Salmonella enterica
[3] = test system: epidemic methicillin-resistant Staphylococcus aureus 15 and 16; assay: MIC on IsoSensitest agar / broth, clinical isolates; assay type: cell-based; details: in broth and agar, EMRSA-15 and 16 clinical isolates, read-out: minimum inhibitory concentration
Experimental: (§1) Compound 7 was tested using bacteria which were recent clinical isolates, or were standard reference controls. The clinical isolates were selected to represent important resistant phenotypes currently prevalent in the UK and worldwide. They included (i) methicillin-resistant Staphylococcus aureus (MRSA), specifically the epidemic (E)MRSA-15 and 16 strains dominant in the UK; (ii) methicillin-resistant coagulase negative staphylococci (i.e. S. epidermidis, S. haemolyticus); (iii) vancomycin-resistant as well as susceptible Enterococcus faecalis and E. faecium; (iv) penicillin-resistant and—susceptible Streptococcus pneumoniae; (v) group A streptococci (=S. pyogenes, which remain universally susceptible to penicillin) and (vi) Clostridium difficile.
(§2) MICs were determined on IsoSensitest agar (ISA) (method of British Society for Antimicrobial Chemotherapy, http://www.bsac.org.uk) or by microdilution in IsoSensitest Broth (ISB). Both media were from Oxoid, Basingstoke, Hants. Plates were variously incubated, at 35-37° C., in air, air enriched with 5% CO2 or under anaerobic conditions.

[4] = test system: methicillin-resistant coagulase-negative Staphylococcus epidermidis; assay: as above; assay type: cell-based; details: in broth and agar, methicillin-resistant S. epidermidis, read-out: minimum inhibitory concentration
Experimental: as §1, §2

[5] = test system: methicillin-sensitive Staphylococcus aureus; assay: as above; assay type: cell-based; details: in broth and agar, methicillin-sensitive S. aureus, read-out: minimum inhibitory concentration
Experimental: as §1, §2

[6] = test system: methicillin-sensitive coagulase-negative Staphylococcus epidermidis; assay: as above; assay type: cell-based; details: in broth and agar, methicillin-sensitive S. epidermidis, read-out: minimum inhibitory concentration
Experimental: as §1, §2

[7] = test system: methicillin-sensitive coagulase-negative Staphylococcus haemolyticus; assay: as above; assay type: cell-based; details: in broth and agar, methicillin-sensitive S. haemolyticus, read-out: minimum inhibitory concentration
Experimental: as §1, §2

[8] = test system: penicillin-resistant and penicillin-sensitive Streptococcus pneumoniae; assay: as above; assay type: cell-based; details: in broth and agar, penicillin-resistant and -sensitive S. pneumoniae, read-out: minimum inhibitory concentration
Experimental: as §1, §2

[9] = test system: vancomycin-resistant and vancomycin-sensitive Enterococcus faecalis; assay: as above; assay type: cell-based; details: in broth and agar, vancomycin-resistant and -sensitive E. faecalis, read-out: minimum inhibitory concentration
Experimental: as §1, §2

[10] = test system: vancomycin-resistant and vancomycin-sensitive Enterococcus faecium; assay: as above; assay type: cell-based; details: in broth and agar, vancomycin-resistant and -sensitive E. faecium, read-out: minimum inhibitory concentration
Experimental: as §1, §2

Group A Streptococcus = assay: as above; assay type: cell-based, S. pyogenes; details: in broth and agar, read-out: minimum inhibitory concentration
Experimental: as §1, §2

[11] = test system: Enterococcus faecalis ATCC29212; assay: MIC on IsoSensitest agar / broth, standard laboratory strain; assay type: cell-based; details: in broth and agar, read-out: minimum inhibitory concentration
Experimental: as §1, §2

[12] = test system: NCTC6571 Staphylococcus aureus; assay: as above; assay type: cell-based; details: in broth and agar, read-out: minimum inhibitory concentration
Experimental: as §1, §2

Streptococcus pneumoniae = assay: as above; assay type: cell-based; details: ATCC29212; in broth and agar; Streptococcus pneumoniae ATCC 29212; read-out: minimum inhibitory concentration
Experimental: as §1, §2

[13] = test system: panel of multidrug-resistant strains of Staphylococcus aureus; details: inventors' 2006 poster; cited from earlier work

CC(C)=CCC[C@]1(C)[C@@H](CC=C(C)C)C[C@@]2(CC=C(C)C)C(=O)[C@]1(C(=O)C(C)C)C(=O)C(CC=C(C)C)=C2O [Hyperforin]
Minimum Inhibitory Concentration (MIC) [1]: 0.1 to 0.5 µg/mL | stability [2]: unstable

Cc1onc(-c2ccccc2)c1C(=O)N[C@@H]1C(=O)N2[C@@H]1SC(C)(C)[C@@H]2C(=O)O [Oxacillin, reference compound]
MIC (S. aureus EMRSA15): 16 µg/mL (≈ 39.9 µM) | MIC (S. aureus EMRSA16): 512 µg/mL (≈ 1280 µM)

CCn1cc(C(=O)O)c(=O)c2cc(F)c(N3CCNCC3)cc21 [Norfloxacin, norfloxacin, reference compound]
MIC (S. aureus SA1199B): 32 µg/mL (≈ 100 µM) | MIC (S. aureus ATCC25923): 1 µg/mL (≈ 3.13 µM) | MIC (P. aeruginosa K1119): 2 µg/mL (≈ 6.26 µM) | MIC (P. aeruginosa K767; P. aeruginosa K767, read-out: MIC): 2 µg/mL (≈ 6.26 µM)

CCC(C)C(=O)c1c(O)cc(O)cc1OC/C=C(\C)CCC=C(C)C (centres unmarked) [Compound 7]
MIC (S. aureus SA1199B): 1 µg/mL (≈ 2.89 µM) | MIC (S. aureus XU212): 1 µg/mL (≈ 2.89 µM) | MIC (S. aureus RN4220): 1 µg/mL (≈ 2.89 µM) | MIC (S. aureus ATCC25923): 1 µg/mL (≈ 2.89 µM) | MIC (S. aureus EMRSA15): 0.5 µg/mL (≈ 1.44 µM) | MIC (S. aureus EMRSA16): 1 µg/mL (≈ 2.89 µM) | MIC (M. smegmatis ATCC14468): 4 µg/mL (≈ 11.5 µM) | MIC (M. fortuitum ATCC6841): 8 µg/mL (≈ 23.1 µM) | MIC (M. smegmatis MC2 2700): 4 µg/mL (≈ 11.5 µM) | MIC (M. phlei ATCC11758): 4 µg/mL (≈ 11.5 µM) | MIC (P. aeruginosa K1119): > 512 µg/mL | MIC (P. aeruginosa K767; K767): > 512 µg/mL | MIC (S. typhimurium L354): > 512 µg/mL | MIC (S. typhimurium L10): > 512 µg/mL | MIC [3]: 2 to 4 µg/mL (≈ 5.77 to 11.5 µM) | MIC [4]: 2 to 8 µg/mL (≈ 5.77 to 23.1 µM) | MIC [5]: 2 to 8 µg/mL (≈ 5.77 to 23.1 µM) | MIC [6]: 2 to 4 µg/mL (≈ 5.77 to 11.5 µM) | MIC [7]: 16 µg/mL (≈ 46.2 µM) | MIC [8]: 2 to 4 µg/mL (≈ 5.77 to 11.5 µM) | MIC [9]: 4 µg/mL (≈ 11.5 µM) | MIC [10]: 2 to 4 µg/mL (≈ 5.77 to 11.5 µM) | MIC (Group A Streptococcus): 4 µg/mL (≈ 11.5 µM) | MIC [11]: 4 µg/mL (≈ 11.5 µM) | MIC [12]: 4 µg/mL (≈ 11.5 µM) | MIC (Streptococcus pneumoniae): 4 µg/mL (≈ 11.5 µM)

CC[C@H]1OC(=O)[C@H](C)[C@@H](O[C@H]2C[C@@](C)(OC)[C@@H](O)[C@H](C)O2)[C@H](C)[C@@H](O[C@@H]2O[C@H](C)C[C@H](N(C)C)[C@H]2O)[C@](C)(O)C[C@@H](C)C(=O)[C@H](C)[C@@H](O)[C@]1(C)O [Erythromycin, erythromycin, reference compound]
MIC (S. aureus RN4220): 128 µg/mL (≈ 174 µM)

CC[C@@H](CO)NCCN[C@@H](CC)CO [Ethambutol]
MIC (M. smegmatis ATCC14468): 0.5 µg/mL (≈ 2.45 µM) | MIC (M. fortuitum ATCC6841): 0.5 µg/mL (≈ 2.45 µM) | MIC (M. smegmatis MC2 2700): 0.5 µg/mL (≈ 2.45 µM) | MIC (M. phlei ATCC11758): 0.5 µg/mL (≈ 2.45 µM)

NNC(=O)c1ccncc1 [Isoniazid]
MIC (M. smegmatis ATCC14468): 2 µg/mL (≈ 14.6 µM) | MIC (M. fortuitum ATCC6841): 4 µg/mL (≈ 29.2 µM) | MIC (M. smegmatis MC2 2700): 2 µg/mL (≈ 14.6 µM) | MIC (M. phlei ATCC11758): 2 µg/mL (≈ 14.6 µM)

O=c1c2cc(O)ccc2oc2cccc(O)c12 [1,7-dihydroxyxanthone]
minimum inhibitory concentration [13]: 128 to 256 µg/mL
